Source: US6610694B1, “Condensed pyridazine compounds, their production and use” (Takeda Chemical Industries, Ltd., priority 1998, dated 2003)
Structures can show the parent of a compound that is named as a salt.

How the values were obtained:
guinea pig eosinophils = assay: Suppression of LTB4-induced chemotactic reaction in guinea pig eosinophils; type: cell-based
Protocol: 1) Preparation of Guinea Pig Eosinophils
To male Hartley guinea pigs, 2 ml of equine serum (Bio-Whittaker, Inc.) was intraperitoneally administered once weekly for 8 consecutive weeks. At 48 hours after final administration, 75 ml of physiological saline was intraperitoneally injected, after which the saline was recovered and centrifuged at 400×g for 5 minutes. The resulting sediment was suspended in 5 ml of Percoll solution (density (d)=1.07) and layered on top of the multiple layers of different densities of Percoll solution (density(d)=1.112, 5 ml; d=1.095, 10 ml; d=1.090, 10 ml; d=1.085, 5 ml), followed by centrifugation at 1,000×g for 25 minutes (20° C.). The cell layer formed at the interface between densities 1.112 and 1.095 was collected. Erythrocytes present in the collected cell sediment were removed by hypotonic treatment (suspended in water for […]).
The cell sediment was washed 3 times with Hanks' solution containing 10 mM Hepes (Dojin Kagaku) (Hanks-Hepes) and suspended in a Hanks-Hepes solution containing 2% human serum albumin (Wako Pure Chemical Industry or Sigma) (Hanks-Hepes-HSA) to a final concentration of 5.56×10^6 cells/ml. Eosinophil purity was 90%, viability being over 98%.
2) Determination of Chemotactic Reaction Suppression
To a 24-well petri dish, which serves as a lower chamber, 600 μl of Hanks-Hepes-HSA solution containing LTB4 (final concentration 10^−8 M, Cascade Biochemical Ltd.), was transferred, followed by incubation at 37° C. for 30 minutes in a carbon dioxide incubator. Separately, 200 μl of eosinophil suspension (5×10^6 cells/ml), previously incubated at 37 C for 15 minutes, was added to Chemotaxicell (polycarbonate membrane, pore size 3 μm, thickness 10 μm), which serves as an upper chamber, after the upper chamber was attached to the 24-well petri dish. After 2 hours of reaction in the CO2 incubator, the Chemotaxicell was removed; 60 μl of a 2% (w/v) solution of EDTA in physiological saline was added to the liquid in the lower chamber. After the mixture was on cooled ice, the cells migrating into the lower chamber were counted using a blood cell counter [Coulter Counter (trade name)]. The test drug, dissolved in N,N-dimethyl formamide (DMF), was added to both the upper and lower chambers to a final concentration of 10^-5 M.
Chemotactic reaction suppression rate=[1−(number of migrating cells in the presence of drug/number of migrating cells in the absence of drug).]×100 Equation 2
Suppression rates of LTB4-induced chemotactic reaction by test substances (1×10^−5 M) were calculated using the above equation.
In the same manner as Experimental Example 2a, the percent suppression of LTB4-induced chemotactic reactions by various example compounds was calculated.

[1] = test system: histamine-induced skin reactions in guinea pigs; assay: Effect on histamine-induced skin reactions in guinea pigs (skin vascular permeability); type: in vivo, guinea pig; settings: oral 3 mg/kg
Protocol: Effect on Histamine-induced Skin Reactions in Guinea Pigs
Male Hartley guinea pigs weighing about 500 g were used. After the dorsal hair was shaved under ether anesthesia, 1 ml of a 2.5% pontamine sky blue solution was injected intravenously administered, and then 0.1 ml of histamine at 3 μg/ml was injected intradermally into 2 sites (left and right) in the back. Thirty minutes after the injection of histamine, the animals were killed by bleeding and the skin was removed. Two perpendicular diameters (mm) of each blue spot on the inside of the skin were measured and multiplied; the mean for the two products was taken as the microvascular permeability index. Test compounds were suspended in a 5% gum arabic solution and orally administered in a volume of 0.2 ml/100 g body weight 1 hour before histamine administration. Animals in the control group received the same volume of a 5% gum arabic solution. The suppression rate of the sample for the title reaction was calculated using Equation 1, and the results are given in Table 1.
Inhibition (%) of histamine-induced skin reactions=100×(1−vascular permeability index in the presence of drug/vascular permeability index in control group) Equation 1
In the same manner as Experimental Example 1a, the effects of various example compounds on histamine-induced skin reactions in guinea pigs were examined.

[2] = LTB4-induced chemotaxis, same manner as Experimental Example 2a (1×10^−5 M), Table 4
[3] = same manner as Experimental Example 1a, Table 3

Structure (SMILES) | melting point | other results
c1ccc(C(OC2CCN(CCCCCCOc3ccc4nncn4n3)CC2)c2ccccc2)cc1 (as salt: fumarate) [Example 7a, 6-[6-[4-(Diphenylmethoxy)piperidino]hexyloxy][1,2,4]triazolo[4,3-b]pyridazine Fumarate] | 144 to 146 °C | 
CC(C)(C)C(=O)OCOC(=O)C(C)(C)n1nc2ccc(NCCCN3CCC(OC(c4ccccc4)c4ccccc4)CC3)nn2c1=O [Example 11b, pivaloyloxymethyl 2-[6-[3-[4-(Diphenylmethoxy)piperidino]propylamino]-3-oxo[1,2,4]triazolo[4,3-b]pyridazin-2(3H)-yl]-2-methylpropionate] | 162 °C | Suppression rate (%) (guinea pig eosinophils; [2]): 100%
OC(COc1ccc2nncn2n1)CN1CCN(C(c2ccccc2)c2ccccc2)CC1 (centres unmarked) [Example 15a, 6-[3-[4-(Diphenylmethyl)-1-piperazinyl]-2-hydroxypropoxy][1,2,4]triazolo[4,3-b]pyridazine] | 95 to 97 °C | 
CC(C)(C(=O)O)n1nc2ccc(NCCCN3CCC(OC(c4ccccc4)c4ccccc4)CC3)nn2c1=O [Example 9b, 2-[6-[3-[4-(Diphenylmethoxy)piperidino]propylamino]-3-oxo[1,2,4]triazolo[4,3-b]pyridazin-2(3H)-yl]-2-methylpropionic Acid] | 181 to 185 °C | 
CC(C)(C)c1nnc2ccc(OCCCN3CCC(OC(c4ccccc4)c4ccccc4)CC3)nn12 [Example 13a, 3-tert-Butyl-6-[3-[4-(diphenylmethoxy)piperidino]propoxy][1,2,4]triazolo[4.3-b]pyridazine] |  | Suppression (%) of histamine-induced skin vascular permeability elevation, oral administration at 3 mg/kg ([1]; 1 hour before intradermal histamine, Table 1): 79%; Suppression rate (%) (guinea pig eosinophils; LTB4 10^−8 M-induced chemotaxis, test substance 1×10^−5 M, Table 2): 41%
c1ccc(C(c2ccccc2)N2CCN(CCCCCCNc3ccc4nncn4n3)CC2)cc1 [Example 11a, 6-[6-[4-(Diphenylmethyl)-1-piperazinyl]hexylamino][1,2,4]triazolo[4,3-b]pyridazine] | 133 to 139 °C | 
CCOC(=O)CNC(=O)c1nnc2ccc(NCCCN3CCC(OC(c4ccccc4)c4ccccc4)CC3)nn12 [Example 29a, N-[6-[3-[4-(Diphenylmethoxy)piperidino]propylamino][1,2,4]triazolo[4,3-b]pyridazine-3-carbonyl]glycine ethyl ester] | 152 to 155 °C | 
CCOC(=O)c1nnc2ccc(NCCCN3CCC(OC(c4ccccc4)c4ccccc4)CC3)nn12 [Example 21a, Ethyl 6-[3-[4-(Diphenylmethoxy)piperidino]propylamino][1,2,4]triazolo[4,3-b]pyridazine-3-carboxylate] | 129 to 133 °C | 
CC(C)(NC(=O)c1nnc2ccc(NCCCN3CCC(OC(c4ccccc4)c4ccccc4)CC3)nn12)C(=O)O [Example 26a, N-[6-[3-[4-(Diphenylmethoxy)piperidino]propylamino][1,2,4]triazolo[4,3-b]pyridazine-3-carbonyl]-2,2-dimethylglycine] | 191 to 193 °C | 
Cn1nc2ccc(OCCCN3CCC(OC(c4ccccc4)c4ccccc4)CC3)nn2c1=O [Example 2b, 6-[3-[4-(Diphenylmethoxy)piperidino]propoxy]-2-methyl[1,2,4]triazolo[4,3-b]pyridazin-3(2H)-one] | 139 to 140 °C | 
CC(C)(C(=O)O)c1nnc2ccc(NCCCN3CCC(OC(c4ccccc4)c4ccccc4)CC3)nn12 [Example 19a, 2-[6-[3-[4-(Diphenylmethoxy)piperidino]propylamino][1,2,4]triazolo[4,3-b]pyridazin-3-yl]-2-methylpropionic Acid] | 155 to 157 °C | 
O=c1[nH]nc2ccc(OCCCN3CCC(OC(c4ccccc4)c4ccccc4)CC3)nn12 [Example 4b, 6-[3-[4-(Diphenylmethoxy)piperidino]propoxy][1,2,4]triazolo[4,3-b]pyridazin-3(2H)-one] | 209 to 211 °C | Suppression (%) of histamine-induced skin vascular permeability elevation, oral administration at 3 mg/kg [1, 3]: 92%
O=c1[nH]nc2ccc(NCCCN3CCC(OC(c4ccccc4)c4ccccc4)CC3)nn12 [Example 3b, 6-[3-[4-(Diphenylmethoxy)piperidino]propylamino][1,2,4]triazolo[4,3-b]pyridazin-3(2H)-one] | 156 to 170 °C | Suppression (%) of histamine-induced skin vascular permeability elevation, oral administration at 3 mg/kg [1, 3]: 94%
CCOC(=O)C(C)(C)n1nc2ccc(OCCCN3CCC(OC(c4ccccc4)c4ccccc4)CC3)nn2c1=O.Cl | 129 °C | 
c1ccc(C(OC2CCN(CCOc3ccc4nncn4n3)CC2)c2ccccc2)cc1 [Example 6a, 6-(2-[4-(Diphenylmethoxy)piperidino]ethoxy][1,2,4]triazolo[4,3-b]pyridazine] | 149 to 150 °C | 
CC(C)(NC(=O)c1nnc2ccc(OCCCN3CCC(OC(c4ccccc4)c4ccccc4)CC3)nn12)C(=O)O [Example 28a, N-[6-[3-[4-(Diphenylmethoxy)piperidino]propoxy][1,2,4]triazolo[4,3-b]pyridazine-3-carbonyl]-2,2-dimethylglycine] | 163 to 165 °C | 
CC(C)(C(N)=O)c1nnc2ccc(OCCCN3CCC(OC(c4ccccc4)c4ccccc4)CC3)nn12 [Example 23a, 2-[6-[3-[4-(Diphenylmethoxy)piperidino]propoxy][1,2,4]triazolo[4,3-b]pyridazin-3-yl]-2-methylpropionamide] | 133 to 136 °C | 
c1ccc(C(c2ccccc2)N2CCN(CCCOc3ccc4nncn4n3)CC2)cc1 [Example 1a, 6-[3-[4-(Diphenylmethyl)-1-piperazinyl]propoxy][1,2,4]triazolo[4,3-b]pyridazine] | 132 to 134 °C | 
c1ccc(C(c2ccccc2)N2CCN(CCCSc3ccc4nncn4n3)CC2)cc1 [Example 2a, 6-[3-[4-(Diphenylmethyl)-1-piperazinyl]propylthio][1,2,4]triazolo[4,3-b]pyridazine] | 143 to 144 °C | 
c1ccc(C(OC2CCN(CCCNc3ccc4nncn4n3)CC2)c2ccccc2)cc1 [Example 4a, 6-[3-(4-(Diphenylmethoxy)piperidino]propylamino][1,2,4]triazolo[4,3-b]pyridazine] | 167 to 168 °C | 
CCOC(=O)C(C)(C)NC(=O)c1nnc2ccc(NCCCN3CCC(OC(c4ccccc4)c4ccccc4)CC3)nn12 [Example 25a, N-[6-[3-[4-(Diphenylmethoxy)piperidino]propylamino][1,2,4]triazolo[4,3-b]pyridazine-3-carbonyl]-2,2-dimethylglycine Ethyl Ester] | 165 to 167 °C | 
O=C(O)CNC(=O)c1nnc2ccc(NCCCN3CCC(OC(c4ccccc4)c4ccccc4)CC3)nn12 [Example 30a, N-[6-[3-[4-(Diphenylmethoxy)piperidino]propylamino][1,2,4]triazolo[4,3-b]pyridazine-3-carbonyl]glycine] | 182 to 184 °C | 
CCOC(=O)Cn1nc2ccc(OCCCN3CCC(OC(c4ccccc4)c4ccccc4)CC3)nn2c1=O [Example 5b, Ethyl 2-[6-[3-[4-(Diphenylmethoxy)piperidino]propoxy]-3-oxo[1,2,4]triazolo[4,3-b]pyridazin-2(3H)-yl]acetate] | 124 to 125 °C | 
CC(C)(C)C(=O)OCn1nc2ccc(NCCCN3CCC(OC(c4ccccc4)c4ccccc4)CC3)nn2c1=O [Example 10b, 6-[3-[4-(Diphenylmethoxy)piperidino]propylamino]-2-(pivaloyloxymethyl)[1,2,4]triazolo[4,3-b]pyridazin-3(2H)-one] | 168 to 171 °C | Suppression rate (%) (guinea pig eosinophils; [2]): 55%
